According to patent US9480703B2, “Method and composition of glycosaminoglycans in sickle cell and vascular disorders” (priority 2013, dated 2016):

Experiments:
[1] = test system: adhesion of sickle RBCs to endothelial cells (HUVECs); assay: Static adhesion assay of PKH67-labeled sickle RBCs on TNF-α-treated HUVECs; assay type: cell-based, human; conditions: HUVECs treated with TNF-α 10 ng/ml; PSI 10 μg/ml, LMWH & SNACH 40 μg/ml
Experimental: Using gelatin-coated culture flasks, HUVEC were cultured in EGM complete media supplemented with 2 ml bovine brain extract (BBE), and passaged when 80% confluent using trypsin/EDTA solution according to the manufacturers' instructions. Cells from passages 2 to 6 were used for adhesion assay experiments. Cells were sub-cultured in a 96-well plate pre-coated with collagen with a number of 20,000 cells per well, and were left for 24 hours at 37° C. in a CO2 (5%) incubator to form a confluent monolayer.
Normal and sickle blood samples were collected in EDTA tubes from the antecubital vein of healthy volunteers and homozygous sickle cell patients, respectively. […] Packed RBCs were washed once with PBS, and counted using a CBC analyzer. […]
After HUVECs formed a confluent monolayer in the plate's wells, the experiment was designed to include five groups in […]: medium only (negative control), TNF-α only (positive control), or TNF-α with the treatment compounds: LMWH, SNACH, and PSI. […] Non-adherent RBCs were removed with PBS wash, and then 150 μl of complete medium were added for plate reading.
In order to quantitate endothelial-adherent RBCs by the fluorescence plate reader, serial two-fold dilutions of PKH67-labeled RBC samples were prepared from 2×10^6 to 0.16×10^6 RBCs/well. […] fluorescence was detectable with as few as 10^4 RBCs. […]

NFkB = assay: NF-KB luciferase reporter assay; assay type: cell-based; conditions: NF-KB Luciferase Reporter Hela Stable cells, 1 μL, 10 μL and 100 μL, two hours
Experimental: The Luciferase Assay System was purchased from Promega (Madison, Wis., USA). NF-KB Luciferase Reporter Hela Stable cells were seeded at 10^4 cells/well in 96-well plate and incubated for 24 hours. Then, growth media was removed. Next, SNACH, tinzaparin or Poly-Arginine NPs were added at concentrations of 1 μL, 10 μL and 100 μL in triplicate and incubated at 36° C. for two hours. After two hours, cells were washed with PBS. Lysis buffer was prepared following a generic protocol. 0.5 mL of lysis buffer was mixed with 2 mL of PBS. Next, the lysis buffer's solution was added to each well. Afterward, the 96-well plate was rocked several times using a shaker. Cells and liquid were collected for centrifugation at 1200×g for 5 minutes at 4° C. The supernatant was removed and stored at −80° C. One week later, the 96-well plate was placed in the luminometer containing 20 μL of lysis buffer and 100 μL of luciferase assay reagent/well. The light was measured for a period of 10 seconds with a delay time of 2 seconds.

ICAM-1 = ICAM-1 levels in plasma of transgenic sickle cell mice; assay type: in vivo; conditions: daily subcutaneous treatment for 7 days, LMWH 5 mg/kg, SNACH (NACH) 20 mg/kg, PSI-14 10 mg/kg
Excerpt: (§1) Transgenic SCD model mice (stock #013071) of aged-matched female were obtained from The Jackson Laboratory (Bar Harbor, Me.) in addition to wild mice as controls. Genetically, transgenic mice were designed with the human hemoglobin gamma (^Ay) gene and the human sickle hemoglobin beta (β^S) gene replacing the endogenous mouse major and minor β-globin.
(§2) Each category of mice (wild or SCD) was divided into three groups. Basal blood samples were taken by retro orbital venipuncture under anesthesia with citrated micro-hematocrit tubes, before the treatment administration. The three groups in each category were treated subcutaneously with LMWH (5 mg/kg), SNACH (20 mg/kg), and PSI (10 mg/kg). Compounds were administered daily for 7 days, and follow up blood samples were drawn daily after 1 hour of treatment administration. Immediately after collection, blood was centrifuged at 800×g for 5 minutes and plasma was collected and stored at −80° C.
Levels of adhesion biomarker ICAM-1 were measured in mice plasma using the Bio-Plex 200 systems. Assay kit (171-304080M) was obtained from Bio-Rad (Hercules, Calif.) and the experiment was conducted following the provided instructions. The assay principle is based on the concept of sandwich ELISA where magnetic beads are covalently bound to the capture antibodies that react to the targeted biomarker. […]

factor Xa = assay: Anti-Xa in dosed mice; assay type: in vivo; conditions: subcutaneous, SNACH 0.1-40 mg/Kg, tinzaparin 0.1-5.0 mg/Kg
[2] = test system: platelet/fibrin clot dynamics; assay: Thrombelastography (TEG), cup with or without HUVEC coating; conditions: re-calcified citrated whole blood
Experimental: Thrombelastography (TEG) was performed in either citrated whole blood after re-calcification. The blood samples were mixed with 3.8% tri-sodium citrate solution (one part citrate solution to 9 parts blood) as anticoagulant. The citrated whole blood was re-calcified by adding 0.4 ml isotonic calcium chloride solution. An aliquot of 0.36 ml of the re-calcified whole blood was transferred to the pre-warmed cup (Coated with monolayer of HUVEC or not) of the thrombelastograph. The following measurements were the standard variables of TEG: (i) Reaction time (R): the time from sample placement in the cup until onset of clotting (defined as amplitude of 1 mm). This represents the rate of initial fibrin formation; (ii) Maximum amplitude (MA): greatest amplitude on the TEG trace, wherein MA represents the absolute strength of the fibrin clot and is a direct function of the maximum dynamic strength of fibrin and platelets.

P-selectin = P-selectin levels in plasma of transgenic sickle cell mice; assay type: in vivo; conditions: daily subcutaneous treatment for 7 days, LMWH 5 mg/kg, SNACH (NACH) 20 mg/kg
Excerpt: as §1, §2

aPTT in dosed mice = assay type: in vivo; conditions: subcutaneous, SNACH 0.1-40 mg/Kg, tinzaparin 0.1-5.0 mg/Kg
[3] = Mortality of treated SCD mice; assay type: in vivo; conditions: LMWH 5 mg/kg daily, % of the group's mice
Experimental: as §2

Bleeding time in mice = assay type: in vivo
[4] = test system: endogenous pathway of coagulation; assay: aPTT in citrated plasma; conditions: SNACH 1-10 uM
Experimental: To 0.1 ml of citrated plasma 0.1 ml of human placenta lipid is added and the mixture is incubated for 2 min at 37° C. The coagulation process is initiated by the addition of 0.1 ml 25 mM calcium chloride and the time to clot formation is determined. The aPTT measures effects on the endogenous pathway of coagulation.

tinzaparin [LMWH]
adhesion of sickle RBCs to the endothelial layer compared to TNF-α only (positive control) [1]: did not show a decrease in the adhesion that could be considered statistically significant
NFkB activation (NFkB): significant concentration-dependent suppression of NFkB activation
ICAM-1 levels in plasma at multiple time points (ICAM-1): showed a decrease only on the first and third days of treatment
anti-Xa (factor Xa): inhibition of factor Xa
platelet/fibrin clot dynamics (TEG) ([2]; absence of endothelial cell coating of cup): suppression of platelet/fibrin clot dynamics
platelet/fibrin clot dynamics (TEG) ([2]; presence of endothelial cell (HUVEC) coating of cup): suppression of platelet/fibrin clot dynamics
decrease of P-selectin levels in plasma (P-selectin): ~15%
aPTT (aPTT in dosed mice): increase in aPTT
mortality rate (bleeding complications) [3]: 75%
bleeding time (Bleeding time in mice; subcutaneous, SNACH 0.1-40 mg/Kg, tinzaparin 0.1-5.0 mg/Kg): maximal increase in bleeding time
finding at site of injection (Bleeding time in mice; tinzaparin 0.1-5.0 mg/Kg subcutaneously): browsing at site of injection
effect on aPTT [4]: concentration dependent increase in aPTT
